Test results published in patent US6346514B1, “Pharmaceutical lysine-containing polypeptide compositions and methods of use thereof” (priority 1991, dated 2002).

Tested on: Vibrio anguillarum (V-775)
Assay: Vaccine augmentation in Rainbow trout challenged with Vibrio anguillarum
Assay type: in vivo, Rainbow trout (Oncorhynchus mykiss)
Procedure: In the present investigation, fish were obtained and inoculated at approximately 12 weeks of age. Immunologic studies were conducted under a variety of conditions in which fish were provided with vaccination to observe vaccine augmentation, and under conditions in which no vaccine was provided prior to inoculum. The effects of exposure time, HM897 concentration, and vaccine on mortalities relative to control studies in which no HM897 was administered provided data for analysis of the immunologic effect of HM897.
The study was conducted using Rainbow trout (Oncorhynchus mykiss) to compare the effects of a standard fish vaccine to the protection provided by varying dosages of HM897. The fish were challenged with Vibrio anguillarum (V-775), a bacteria that causes fatal vibriosis, typically 3-5 days following pathogen exposure.
Rainbow Trout (Oncorhynchus mykiss) weighing approximately 5 grams were used as test organisms. The fish were obtained from Cran-Mar Trout Farm. Upon arrival at BRL's facility, the fish were quarantined for a minimum of seven days, and observed to be disease free. During this period, the fish were held at a stable temperature. There was consistent water quality in an aerated flow-through system with a flow rate of approximately 30 liters per hour. During the holding period the fish were observed daily for signs of disease, stress, injury, hemorrhaging, and external parasite. The fish were not fed 48 hours prior to testing.
The Rainbow trout used in this study weighed an average of 5 grams. The fish were divided into 21 groups with 50 fish per group. Each group of 50 fish was maintained in two 10-gallon tanks (25 fish/tank).
The level of bacterial dilution to achieve a LD75 (the level designed to kill 75% of the non-vaccinated fish) was a dilution of 10^−4. to 10^−5. The challenge bacteria were grown for 48 hours at 25° C in trypticase soy broth. The 10^−4 dilution was made from this broth in 0.9% saline. All fish excepting the control group that received no bacterial challenge were inoculated 7 days after exposure to HM897.
Rainbow trout hatchling were exposed to the concentration of HM897 as described below. Some of the fish had been vaccinated while others had received no vaccination. In each tank, fifty vaccinated or unvaccinated fish were exposed for a period of 5 minutes to HM897, and then removed and placed in an assigned tank according to the group number.
The positive control group (III) received a vaccine made from Vibrio anguillarum (V-775). This was made through a fermentation and extraction process in the BRL laboratory facility and is equivalent to the aquaculture industry standard vibrio vaccine.
All groups scheduled to be challenged with the Vibrio anguillarum bacterium were challenged at the LD75 dilution on day seven of the experiment by i.p. injection of 0.1 mL of 10^−4 bacterial dilution. The fish were observed daily for mortalities.

Thr-Ala-Glu-Glu-Lys (TAEEK) [HM897]
Cumulative Mortalities (Day 1, Group IVa: vaccinated, HM897 2.5 μg/38 liters): 0 | Cumulative Mortalities (Day 1, Group IVb: vaccinated, HM897 10 μg/38 liters): 0 | Cumulative Mortalities (Day 1, Group IVc: vaccinated, HM897 50 μg/38 liters): 0 | Cumulative Mortalities (Day 1, Group IVd: vaccinated, HM897 100 μg/38 liters): 0 | Cumulative Mortalities (Day 1, Group Va: not vaccinated, HM897 10 μg/38 liters): 0 | Cumulative Mortalities (Day 1, Group Vb: not vaccinated, HM897 25 μg/38 liters): 0 | Cumulative Mortalities (Day 1, Group Vc: not vaccinated, HM897 75 μg/38 liters): 0 | Cumulative Mortalities (Day 1, Group Vd: not vaccinated, HM897 150 μg/38 liters): 0 | Cumulative Mortalities (Day 2.10, Group IVa: vaccinated, HM897 2.5 μg/38 liters): 0 | Cumulative Mortalities (Day 2.10, Group IVb: vaccinated, HM897 10 μg/38 liters): 0 | Cumulative Mortalities (Day 2.10, Group IVc: vaccinated, HM897 50 μg/38 liters): 0 | Cumulative Mortalities (Day 2.10, Group IVd: vaccinated, HM897 100 μg/38 liters): 0 | Cumulative Mortalities (Day 2.10, Group Va: not vaccinated, HM897 10 μg/38 liters): 0 | Cumulative Mortalities (Day 2.10, Group Vb: not vaccinated, HM897 25 μg/38 liters): 0 | Cumulative Mortalities (Day 2.10, Group Vc: not vaccinated, HM897 75 μg/38 liters): 0 | Cumulative Mortalities (Day 2.10, Group Vd: not vaccinated, HM897 150 μg/38 liters): 0 | Cumulative Mortalities (Day 11, Group IVa: vaccinated, HM897 2.5 μg/38 liters): 0 | Cumulative Mortalities (Day 11, Group IVb: vaccinated, HM897 10 μg/38 liters): 0 | Cumulative Mortalities (Day 11, Group IVc: vaccinated, HM897 50 μg/38 liters): 0 | Cumulative Mortalities (Day 11, Group IVd: vaccinated, HM897 100 μg/38 liters): 0 | Cumulative Mortalities (Day 11, Group Va: not vaccinated, HM897 10 μg/38 liters): 0 | Cumulative Mortalities (Day 11, Group Vb: not vaccinated, HM897 25 μg/38 liters): 0 | Cumulative Mortalities (Day 11, Group Vc: not vaccinated, HM897 75 μg/38 liters): 1 | Cumulative Mortalities (Day 11, Group Vd: not vaccinated, HM897 150 μg/38 liters): 0 | Cumulative Mortalities (Day 12, Group IVa: vaccinated, HM897 2.5 μg/38 liters): 0 | Cumulative Mortalities (Day 12, Group IVb: vaccinated, HM897 10 μg/38 liters): 0 | Cumulative Mortalities (Day 12, Group IVc: vaccinated, HM897 50 μg/38 liters): 0 | Cumulative Mortalities (Day 12, Group IVd: vaccinated, HM897 100 μg/38 liters): 0 | Cumulative Mortalities (Day 12, Group Va: not vaccinated, HM897 10 μg/38 liters): 0 | Cumulative Mortalities (Day 12, Group Vb: not vaccinated, HM897 25 μg/38 liters): 0 | Cumulative Mortalities (Day 12, Group Vc: not vaccinated, HM897 75 μg/38 liters): 1 | Cumulative Mortalities (Day 12, Group Vd: not vaccinated, HM897 150 μg/38 liters): 0 | Cumulative Mortalities (Day 13, Group IVa: vaccinated, HM897 2.5 μg/38 liters): 1 | Cumulative Mortalities (Day 13, Group IVb: vaccinated, HM897 10 μg/38 liters): 1 | Cumulative Mortalities (Day 13, Group IVc: vaccinated, HM897 50 μg/38 liters): 1 | Cumulative Mortalities (Day 13, Group IVd: vaccinated, HM897 100 μg/38 liters): 8 | Cumulative Mortalities (Day 13, Group Va: not vaccinated, HM897 10 μg/38 liters): 16 | Cumulative Mortalities (Day 13, Group Vb: not vaccinated, HM897 25 μg/38 liters): 18 | Cumulative Mortalities (Day 13, Group Vc: not vaccinated, HM897 75 μg/38 liters): 21 | Cumulative Mortalities (Day 13, Group Vd: not vaccinated, HM897 150 μg/38 liters): 14 | Cumulative Mortalities (Day 14, Group IVa: vaccinated, HM897 2.5 μg/38 liters): 7 | Cumulative Mortalities (Day 14, Group IVb: vaccinated, HM897 10 μg/38 liters): 5 | Cumulative Mortalities (Day 14, Group IVc: vaccinated, HM897 50 μg/38 liters): 5 | Cumulative Mortalities (Day 14, Group IVd: vaccinated, HM897 100 μg/38 liters): 15 | Cumulative Mortalities (Day 14, Group Va: not vaccinated, HM897 10 μg/38 liters): 24 | Cumulative Mortalities (Day 14, Group Vb: not vaccinated, HM897 25 μg/38 liters): 25 | Cumulative Mortalities (Day 14, Group Vc: not vaccinated, HM897 75 μg/38 liters): 29 | Cumulative Mortalities (Day 15, Group IVa: vaccinated, HM897 2.5 μg/38 liters): 10 | Cumulative Mortalities (Day 15, Group IVb: vaccinated, HM897 10 μg/38 liters): 6 | Cumulative Mortalities (Day 15, Group IVc: vaccinated, HM897 50 μg/38 liters): 10 | Cumulative Mortalities (Day 15, Group IVd: vaccinated, HM897 100 μg/38 liters): 16 | Cumulative Mortalities (Day 15, Group Va: not vaccinated, HM897 10 μg/38 liters): 28 | Cumulative Mortalities (Day 15, Group Vb: not vaccinated, HM897 25 μg/38 liters): 32 | Cumulative Mortalities (Day 15, Group Vc: not vaccinated, HM897 75 μg/38 liters): 32 | Cumulative Mortalities (Day 16, Group IVa: vaccinated, HM897 2.5 μg/38 liters): 13 | Cumulative Mortalities (Day 16, Group IVb: vaccinated, HM897 10 μg/38 liters): 6 | Cumulative Mortalities (Day 16, Group IVc: vaccinated, HM897 50 μg/38 liters): 10 | Cumulative Mortalities (Day 16, Group IVd: vaccinated, HM897 100 μg/38 liters): 17 | Cumulative Mortalities (Day 16, Group Va: not vaccinated, HM897 10 μg/38 liters): 33 | Cumulative Mortalities (Day 16, Group Vb: not vaccinated, HM897 25 μg/38 liters): 33 | Cumulative Mortalities (Day 16, Group Vc: not vaccinated, HM897 75 μg/38 liters): 33 | Cumulative Mortalities (Day 17, Group IVa: vaccinated, HM897 2.5 μg/38 liters): 13 | Cumulative Mortalities (Day 17, Group IVb: vaccinated, HM897 10 μg/38 liters): 7 | Cumulative Mortalities (Day 17, Group IVc: vaccinated, HM897 50 μg/38 liters): 10
